This is an account of results in US10969390B2, “Method for evaluating efficacy of chemoradiotherapy against squamous cell carcinoma” (NATIONAL CANCER CENTER, priority 2014, dated 2021).

In assay [1] the test system is SIM2 stably expressing lines (KYSE510-SIM2-27 and -37, TE8-SIM2-2 and -3, T.Tn-SIM2-9 and -23) of esophageal squamous cell carcinoma cell lines. In words: anticancer-agent sensitivity test of SIM2-gene stably expressing lines, two-dimensional culturing, viable cell count (trypan blue). The following applies: for sensitivities to anticancer agents of SIM2 stably expressing lines in comparison with control-vector introduced lines: two-dimensional culture, 3 days, CDDP 2, 5, 10 μM, 5-FU 10 μM, DTX 1 nM, versus KYSE510-Mock, TE8-Mock, T.Tn-Mock. It is filed as cell-based. The procedure: (§1) The SIM2 gene was introduced into TE8 obtained from RIKEN BRC and KYSE510 and T. Tn obtained from JCRB Cell Bank. The resultant was cultured in a medium containing 400 μg/ml of G-418 for approximately 2 weeks. The G418 resistant colonies were isolated and cultured. The SIM2 gene expression was confirmed by an RT-PCR method. Thus, SIM2-gene stably expressing lines were established. Cell lines in which only a GFP expression plasmid vector was introduced were prepared as control cell lines. To extract the total RNAs and evaluate the differentiation-inducing activities of the SIM2-gene stably expressing lines, the SIM2-gene stably expressing lines were each seeded into NanoCulture (registered trademark) Plate and then cultured with a normal medium for 3 days. The total RNA was extracted, and an RT-PCR method was performed. The cDNA was synthesized using SuperScript (registered trademark) III First-Strand Synthesis System for RT-PCR. The diluted cDNA was mixed with AccuPrime (registered trademark) Taq DNA Polymerase System (Invitrogen), primers, and nuclease-free water, and amplified using GeneAmp (registered trademark) PCR System 9700 (Applied Biosystems Inc.). The resultant was quantified and compared by agarose gel electrophoresis.
To evaluate the sensitivities of the SIM2-gene stably expressing lines to cisplatin (CDDP), 5-fluorouracil (5-FU), and docetaxel (DTX), an anticancer-agent sensitivity test was conducted. The SIM2-gene stably expressing lines were each seeded into a 6-well plate, cultured with a normal medium for 1 day, and then cultured with a normal medium or a medium supplemented with CDDP (2 μM, 5 μM, 10 μM), 5-FU (10 μM), or DTX (1 nM) for 3 days. After the chemical treatment was completed, the cells were collected using 0.25% trypsin/EDTA and stained with trypan blue. After that, the number of viable cells was counted.

Assay [2] deals with SIM2 stably expressing lines (T.Tn-SIM2-9 and -23). In words: cisplatin long-term sensitivity test of SIM2-gene stably expressing lines, three-dimensional culturing, viable cell count. It is filed as cell-based. The note with it: 14 days, CDDP 5×10^−6 M, T.Tn-SIM2-9 and -23 versus T.Tn-Mock. The protocol:
as §1, with “The diluted cDNA was mixed with AccuPrime (registered trademark) Taq DNA Polymerase System (Invitrogen), primers, and nuclease-free water, and amplified using GeneAmp (registered trademark) PCR System 9700 (Applied Biosystems Inc.).” left out
To evaluate the sensitivities of the SIM2-gene stably expressing lines to CDDP long-term administration, an anticancer-agent sensitivity test was conducted employing three-dimensional culturing. […] After that, the number of viable cells was counted.

Turning to `O=c1[nH]cc(F)c(=O)[nH]1` [5-fluorouracil], in assay [1], the “sensitivities to anticancer agents of SIM2 stably expressing lines in comparison with control-vector introduced lines” value (“sensitivities to anticancer agents” below) is “increased”.

As for `N.N.[Cl][Pt][Cl]` [cisplatin], the “sensitivities to CDDP of SIM2 stably expressing lines in comparison with control-vector introduced line” value in assay [2] was “remarkably increased”. Moreover, in assay [1] (concentration near IC50, 3 days, FIG. 6), the “CDDP effect in 3 days (two-dimensional culturing)” value is listed as “significant but small”. For the same compound, the “sensitivities to anticancer agents” value in assay [1] was “increased”.

As for `CC(=O)O[C@@]12CO[C@@H]1C[C@H](O)[C@@]1(C)C(=O)[C@H](O)C3=C(C)[C@@H](OC(=O)[C@H](O)[C@@H](NC(=O)OC(C)(C)C)c4ccccc4)C[C@@](O)([C@@H](OC(=O)c4ccccc4)[C@H]21)C3(C)C` [docetaxel], the “sensitivities to anticancer agents” value in assay [1] was “increased”.
